HELM strings list units from the 5' end as sugar, base in round brackets, then linkage (d deoxyribose, r ribose, m 2'-O-methyl, p phosphodiester). [sp] = phosphorothioate linkage
Experiments:
[1] = target: CDKN2B-AS1; experiment: HEK293-TLR8, 100 nM ASO, then resiquimod
[2] = target: CDKN2B-AS1; experiment: HEK293-TLR7, 100 nM ASO, then resiquimod

Substance | TLR8 potentiation (NF-kB luciferase) (fold of resiquimod alone) [1] | TLR7 signal (NF-kB luciferase) (% of resiquimod alone) [2]
RNA1{m(G)[sp].m(U)[sp].m(C)[sp].m(C)[sp].m(C)[sp].d(A)[sp].d(G)[sp].d(G)[sp].d(C)[sp].d(C)[sp].d(T)[sp].d(C)[sp].d(C)[sp].d(A)[sp].d(G)[sp].m(U)[sp].m(G)[sp].m(U)[sp].m(C)[sp].m(U)}$$$$ | 1.05 | 19
RNA1{m(A)[sp].m(G)[sp].m(U)[sp].m(G)[sp].m(G)[sp].d(C)[sp].d(A)[sp].d(C)[sp].d(A)[sp].d(T)[sp].d(A)[sp].d(C)[sp].d(C)[sp].d(A)[sp].d(C)[sp].m(A)[sp].m(C)[sp].m(C)[sp].m(C)[sp].m(U)}$$$$ | 2.24 | 42
RNA1{m(A)[sp].m(A)[sp].m(A)[sp].m(G)[sp].m(C)[sp].d(A)[sp].d(G)[sp].d(T)[sp].d(C)[sp].d(T)[sp].d(C)[sp].d(C)[sp].d(A)[sp].d(T)[sp].d(G)[sp].m(U)[sp].m(C)[sp].m(C)[sp].m(C)[sp].m(A)}$$$$ | 1.9 | 27.2
RNA1{m(G)[sp].m(U)[sp].m(C)[sp].m(U)[sp].m(C)[sp].d(C)[sp].d(A)[sp].d(T)[sp].d(G)[sp].d(T)[sp].d(C)[sp].d(C)[sp].d(C)[sp].d(A)[sp].d(G)[sp].m(G)[sp].m(C)[sp].m(C)[sp].m(U)[sp].m(C)}$$$$ | 1.01 | 23.8
RNA1{m(A)[sp].m(A)[sp].m(A)[sp].m(A)[sp].m(U)[sp].d(A)[sp].d(A)[sp].d(G)[sp].d(G)[sp].d(G)[sp].d(G)[sp].d(A)[sp].d(A)[sp].d(T)[sp].d(A)[sp].m(G)[sp].m(G)[sp].m(G)[sp].m(G)[sp].m(A)}$$$$ | 0.86 | 68.5
RNA1{m(G)[sp].m(A)[sp].m(A)[sp].m(A)[sp].m(A)[sp].d(G)[sp].d(A)[sp].d(T)[sp].d(T)[sp].d(A)[sp].d(T)[sp].d(C)[sp].d(T)[sp].d(T)[sp].d(C)[sp].m(U)[sp].m(U)[sp].m(U)[sp].m(U)[sp].m(A)}$$$$ | 1.31 | 34.4
RNA1{m(A)[sp].m(A)[sp].m(U)[sp].m(A)[sp].m(U)[sp].d(C)[sp].d(T)[sp].d(G)[sp].d(C)[sp].d(T)[sp].d(G)[sp].d(C)[sp].d(C)[sp].d(C)[sp].d(A)[sp].m(C)[sp].m(C)[sp].m(U)[sp].m(U)[sp].m(C)}$$$$ | 1.79 | 43.7
RNA1{m(C)[sp].m(C)[sp].m(A)[sp].m(U)[sp].m(G)[sp].d(T)[sp].d(C)[sp].d(C)[sp].d(C)[sp].d(A)[sp].d(G)[sp].d(G)[sp].d(C)[sp].d(C)[sp].d(T)[sp].m(C)[sp].m(C)[sp].m(A)[sp].m(G)[sp].m(U)}$$$$ | 1.24 | 41.4
RNA1{m(A)[sp].m(A)[sp].m(G)[sp].m(A)[sp].m(U)[sp].d(T)[sp].d(A)[sp].d(T)[sp].d(C)[sp].d(T)[sp].d(T)[sp].d(C)[sp].d(T)[sp].d(T)[sp].d(T)[sp].m(U)[sp].m(A)[sp].m(A)[sp].m(U)[sp].m(U)}$$$$ | 2.91 | 42.1
RNA1{m(A)[sp].m(A)[sp].m(G)[sp].m(C)[sp].m(A)[sp].d(G)[sp].d(T)[sp].d(C)[sp].d(T)[sp].d(C)[sp].d(C)[sp].d(A)[sp].d(T)[sp].d(G)[sp].d(T)[sp].m(C)[sp].m(C)[sp].m(C)[sp].m(A)[sp].m(G)}$$$$ | 1.79 | 35.7
RNA1{m(C)[sp].m(A)[sp].m(G)[sp].m(U)[sp].m(C)[sp].d(T)[sp].d(C)[sp].d(C)[sp].d(A)[sp].d(T)[sp].d(G)[sp].d(T)[sp].d(C)[sp].d(C)[sp].d(C)[sp].m(A)[sp].m(G)[sp].m(G)[sp].m(C)[sp].m(C)}$$$$ | 2.73 | 47.8
